ChEMBL document CHEMBL1201862, “PubChem BioAssay data set” (2004)
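Briefly, cells in 96-well plates were exposed to five compound concentrations for 48 h, and endpoints were estimated by linear interpolation. GI50 = concentration required for 50% inhibition of growth.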 Calls of active or inactive are those of the source. No stated cut-off is given here; in the data, active = GI50 up to about 1.1 µM and inactive = higher.

How the values were obtained:
Assay in all cases: DTP human tumour cell line panel, 48 h
SF-268 = system: SF-268
EKVX = system: EKVX
CCRF-CEM = system: CCRF-CEM
M14 = system: M14
ACHN = system: ACHN
SF-539 = system: SF-539
SK-OV-3 = system: SK-OV-3
SF-295 = system: SF-295
OVCAR-5 = system: OVCAR-5
SK-MEL-5 = system: SK-MEL-5
Malme-3M = system: Malme-3M
OVCAR-3 = system: OVCAR-3
HCT-15 = system: HCT-15
SW-620 = system: SW-620
HT-29 = system: HT-29
SNB-19 = system: SNB-19
SK-MEL-2 = system: SK-MEL-2
NCI-H23 = system: NCI-H23
DLD-1 = system: DLD-1
UO-31 = system: UO-31
HOP-92 = system: HOP-92
U-251 = system: U-251
COLO 205 = system: COLO 205
OVCAR-4 = system: OVCAR-4
M19-MEL = system: M19-MEL
SN12C = system: SN12C
LXFL 529 = system: LXFL 529
MOLT-4 = system: MOLT-4
TK-10 = system: TK-10
KM12 = system: KM12
KM-20L2 = system: KM-20L2
IGROV-1 = system: IGROV-1
NCI-H460 = system: NCI-H460
SK-MEL-28 = system: SK-MEL-28
HCC 2998 = system: HCC 2998
HCT-116 = system: HCT-116
K562 = system: K562
DMS-273 = system: DMS-273
LOX IMVI = system: LOX IMVI
HOP-62 = system: HOP-62
UACC-257 = system: UACC-257
SNB-75 = system: SNB-75
NCI-H522 = system: NCI-H522
OVCAR-8 = system: OVCAR-8
A549 = system: A549
RPMI-8226 = system: RPMI-8226
A498 = system: A498
786-0 = system: 786-0
UACC-62 = system: UACC-62
MDA-MB-231 = system: MDA-MB-231
PC-3 = system: PC-3
MDA-MB-435 = system: MDA-MB-435
DU-145 = system: DU-145
SR = system: SR
MDA-N = system: MDA-N
T47D = system: T47D
RXF 393 = system: RXF 393
Hs-578T = system: Hs-578T
NCI-H226 = system: NCI-H226
CAKI-1 = system: CAKI-1
HL-60 = system: HL-60
BT-549 = system: BT-549
NCI/ADR-RES = system: NCI/ADR-RES
MCF7 = system: MCF7

Cc1cc2c(=O)cc(-c3cccs3)oc2c(C(=O)O)c1C
GI50 (SF-268): 34.2 µM (inactive) | GI50 (EKVX): > 100 µM (inactive) | GI50 (CCRF-CEM): 64.7 µM (inactive) | GI50 (M14): > 100 µM (inactive) | GI50 (ACHN): > 100 µM (inactive) | GI50 (SF-539): > 10 µM (inactive) | GI50 (SK-OV-3): > 100 µM (inactive) | GI50 (SF-295): > 100 µM (inactive) | GI50 (OVCAR-5): > 100 µM (inactive) | GI50 (SK-MEL-5): > 100 µM (inactive) | GI50 (Malme-3M): > 100 µM (inactive) | GI50 (OVCAR-3): > 100 µM (inactive) | GI50 (HCT-15): 42.8 µM | GI50 (SW-620): > 100 µM (inactive) | GI50 (HT-29): > 100 µM (inactive) | GI50 (SNB-19): > 100 µM (inactive) | GI50 (SK-MEL-2): > 100 µM (inactive) | GI50 (NCI-H23): > 100 µM (inactive) | GI50 (DLD-1): > 100 µM (inactive) | GI50 (UO-31): > 100 µM (inactive) | GI50 (HOP-92): > 100 µM (inactive) | GI50 (U-251): > 100 µM (inactive) | GI50 (COLO 205): > 100 µM (inactive) | GI50 (OVCAR-4): > 100 µM (inactive) | GI50 (M19-MEL): > 100 µM (inactive) | GI50 (SN12C): > 100 µM (inactive) | GI50 (LXFL 529): 49.4 µM (inactive) | GI50 (MOLT-4): > 100 µM (inactive) | GI50 (TK-10): > 100 µM (inactive) | GI50 (KM12): 97.7 µM (inactive) | GI50 (KM-20L2): > 100 µM (inactive) | GI50 (IGROV-1): > 100 µM (inactive) | GI50 (NCI-H460): > 100 µM (inactive) | GI50 (SK-MEL-28): > 100 µM (inactive) | GI50 (HCC 2998): > 100 µM (inactive) | GI50 (HCT-116): > 100 µM (inactive) | GI50 (K562): 35.8 µM (inactive) | GI50 (DMS-273): > 100 µM (inactive) | GI50 (LOX IMVI): > 100 µM (inactive) | GI50 (HOP-62): > 100 µM (inactive) | GI50 (UACC-257): > 100 µM (inactive) | GI50 (SNB-75): 1.56 µM (inactive) | GI50 (NCI-H522): 21.2 µM (inactive) | GI50 (OVCAR-8): > 100 µM (inactive) | GI50 (A549): > 100 µM (inactive) | GI50 (RPMI-8226): 59.3 µM (inactive) | GI50 (A498): > 100 µM (inactive) | GI50 (786-0): > 100 µM (inactive) | GI50 (UACC-62): > 100 µM (inactive)

C[n+]1c(-c2ccc(NC(=O)c3ccc(C(=O)Nc4ccc(-c5cn6ccccc6[n+]5C)cc4)cc3)cc2)cn2ccccc21
GI50 (SF-268): > 100 µM (inactive) | GI50 (EKVX): > 100 µM (inactive) | GI50 (CCRF-CEM): > 65.6 µM (inactive) | GI50 (M14): > 100 µM (inactive) | GI50 (ACHN): > 100 µM (inactive) | GI50 (SF-539): > 70.5 µM (inactive) | GI50 (SK-OV-3): > 100 µM (inactive) | GI50 (SF-295): 47.5 µM (inactive) | GI50 (OVCAR-5): > 100 µM (inactive) | GI50 (MDA-MB-231): > 42.9 µM (inactive) | GI50 (SK-MEL-5): 43.1 µM (inactive) | GI50 (PC-3): > 100 µM (inactive) | GI50 (Malme-3M): 56.5 µM (inactive) | GI50 (OVCAR-3): > 100 µM (inactive) | GI50 (HCT-15): > 100 µM | GI50 (SW-620): > 100 µM (inactive) | GI50 (HT-29): > 100 µM (inactive) | GI50 (MDA-MB-435): > 67.3 µM (inactive) | GI50 (SNB-19): > 100 µM (inactive) | GI50 (SK-MEL-2): > 100 µM (inactive) | GI50 (NCI-H23): > 100 µM (inactive) | GI50 (UO-31): > 100 µM (inactive) | GI50 (HOP-92): > 100 µM (inactive) | GI50 (DU-145): > 100 µM (inactive) | GI50 (U-251): > 73.3 µM (inactive) | GI50 (COLO 205): > 56.2 µM (inactive) | GI50 (SR): 18.5 µM (inactive) | GI50 (MDA-N): > 69.8 µM (inactive) | GI50 (OVCAR-4): > 100 µM (inactive) | GI50 (T47D): > 100 µM (inactive) | GI50 (SN12C): > 66.1 µM (inactive) | GI50 (MOLT-4): > 67.9 µM (inactive) | GI50 (TK-10): > 100 µM (inactive) | GI50 (RXF 393): 39.6 µM (inactive) | GI50 (Hs-578T): > 100 µM (inactive) | GI50 (KM12): > 82.6 µM (inactive) | GI50 (NCI-H226): > 100 µM (inactive) | GI50 (CAKI-1): > 100 µM (inactive) | GI50 (IGROV-1): > 66.5 µM (inactive) | GI50 (NCI-H460): > 100 µM (inactive) | GI50 (SK-MEL-28): > 100 µM (inactive) | GI50 (HCC 2998): > 100 µM (inactive) | GI50 (HCT-116): > 100 µM (inactive) | GI50 (K562): > 100 µM (inactive) | GI50 (LOX IMVI): > 100 µM (inactive) | GI50 (HL-60): 23.4 µM (inactive) | GI50 (HOP-62): > 100 µM (inactive) | GI50 (UACC-257): > 100 µM (inactive) | GI50 (SNB-75): 60.8 µM (inactive) | GI50 (NCI-H522): > 100 µM (inactive) | GI50 (BT-549): > 100 µM (inactive) | GI50 (NCI/ADR-RES): > 100 µM (inactive) | GI50 (OVCAR-8): > 100 µM (inactive) | GI50 (A549): > 100 µM (inactive) | GI50 (RPMI-8226): 14.3 µM (inactive) | GI50 (A498): 39.1 µM (inactive) | GI50 (MCF7): > 75 µM (inactive) | GI50 (786-0): 29 µM (inactive) | GI50 (UACC-62): > 100 µM (inactive)
